The test system of experiment [1] is amphotropic murine leukemia virus (AMLV). Description: microbe, parasite or virus in culture. The format is cell-based. The conditions noted are these: specificity control.
Another experiment relates to HIV-1YU-2. Description: microbe, parasite or virus in culture. The format is cell-based.
Where [2] appears, read: Murine leukemia virus, read-out: IC50 AMLV, Table 2 screening results.
Setting [3] is: Human immunodeficiency virus 1, read-out: IC50 YU-2, single round infection assay.
[4] abbreviates: read-out: IC50 AMLV, Table 2 screening results.
[5] abbreviates: read-out: IC50 YU-2, single round infection assay.

Where two headings read alike, the source gives them in different places. Some results are limits rather than exact numbers.

As to `CC(C)n1ncc2c(C(=O)N3CCN(C(=O)c4ccccc4)CC3)cc(-c3ccco3)nc21` [Compound 37], the IC50 (in experiment [1] (setting [2]); in the experiment with HIV-1YU-2 (setting [3])) was over 50 µM each time.

Consider `COc1ccc(OC)c(CCC(=O)N2CCN(C(=O)c3cccc(OC(F)F)c3)CC2)c1` [Compound 44], for which the IC50 (in experiment [1] (setting [2]); with HIV-1YU-2 (setting [3])) was over 50 µM throughout.

On to `Cc1[nH]c2ccccc2c1C(=O)C(=O)N1CCC(C(=O)c2ccc(O)cc2)CC1` [Compound 40], for which the IC50 (in experiment [1] (setting [2]); in the experiment with HIV-1YU-2 (setting [3])) was over 50 µM in each case.

As to `O=C(COc1cccc2ccccc12)N1CCN(C(=O)c2ccccc2)CC1` [Compound 12], the values for the IC50 (in experiment [1] (setting [2]); in the experiment with HIV-1YU-2 (setting [3])) were over 300 µM and 53.3 ± 3.7 µM, respectively.

Regarding `O=C(COc1cccc2ccccc12)N1CCN(C(=O)c2ccccc2F)CC1` [Compound 33], the IC50 (in experiment [1] (setting [2]); in the experiment on HIV-1YU-2 (setting [3])) was over 50 µM throughout.

Regarding `O=C(c1ccccc1)N1CCN(C(=O)c2ccc(N3CCOCC3)c([N+](=O)[O-])c2)CC1` [Compound 29], the IC50 (in experiment [1] (setting [2]); with HIV-1YU-2 (setting [3])) was over 50 µM throughout.

With `Cc1ccc(C(C)C)c(OCC(=O)N2CCN(C(=O)c3ccccc3)CC2)c1` [Compound 18], the IC50 (in experiment [1] (setting [4]); with HIV-1YU-2 (setting [5])) was over 300 µM in each case.

Regarding `O=C(c1ccccc1)N1CCN(C(=O)c2csc(-c3ccccc3)n2)CC1` [Compound 16], the IC50 (in experiment [1] (setting [2]); in the experiment with HIV-1YU-2 (setting [3])) was over 300 µM in each case.

Regarding `CCN(CC)S(=O)(=O)N1CCN(C(=O)C(=O)c2c(C)[nH]c3ccccc23)CC1` [Compound 48], the IC50 (in experiment [1] (setting [2]); with HIV-1YU-2 (setting [3])) was over 50 µM in each case.

In the case of `O=C(c1cnccn1)N1CCN(C(=O)c2cc3ccccc3cc2O)CC1` [Compound 24], the IC50 (in experiment [1] (setting [2]); in the experiment with HIV-1YU-2 (setting [3])) was over 300 µM each time.

In the case of `Cc1ccc2nc(C)c(C(=O)N3CCN(C(=O)c4ccccc4)CC3)cc2c1` [Compound 9], the IC50 (in experiment [1] (setting [2]); with HIV-1YU-2 (setting [3])) was over 300 µM in each case.

As for `CCOC(=O)N1CCN(C(=O)C(=O)c2c(C)[nH]c3ccccc23)CC1` [Compound 31], the IC50 (in experiment [1] (setting [2]); in the experiment on HIV-1YU-2 (setting [3])) was over 50 µM in each case.

In the case of `O=C(c1ccccc1)N1CCN(C(=O)c2ccc3c(c2)CCC3)CC1` [Compound 8], the IC50 (in experiment [1] (setting [2]); in the experiment on HIV-1YU-2 (setting [3])) was over 300 µM in each case.

Consider `Cc1nn(C)c2nc(-c3cccs3)cc(C(=O)N3CCN(C(=O)c4ccccc4)CC3)c12` [Compound 38], for which the IC50 (in experiment [1] (setting [2]); in the experiment with HIV-1YU-2 (setting [3])) was over 50 µM in each case.

With `O=C(COc1ncnc2sc(-c3ccccc3)cc12)N1CCN(C(=O)c2ccco2)CC1` [Compound 26], the IC50 (in experiment [1] (setting [2]); in the experiment with HIV-1YU-2 (setting [3])) was over 50 µM each time.

As to `O=C(CSc1ncnc2sccc12)N1CCN(C(=O)c2cccs2)CC1` [Compound 28], the IC50 in experiment [1] (setting [2]) is over 50 µM; in the experiment with HIV-1YU-2 (setting [3]) it was 1.6 ± 0.4 µM.

With `Cc1ccc(C(C)C)c(OCC(=O)N2CCN(C(=O)c3ccccc3)CC2)c1` [Compound 49], the IC50 (in experiment [1] (setting [4]); with HIV-1YU-2 (setting [5])) was over 50 µM throughout.

As to `Cc1cccc(C(=O)N2CCN(S(=O)(=O)c3ccc(C)c(C)c3)CC2)c1` [Compound 10], the IC50 (in experiment [1] (setting [2]); in the experiment on HIV-1YU-2 (setting [3])) was over 300 µM in each case.

Regarding `O=C(c1ccccc1)N1CCN(C(=O)c2ccc3noc(-c4ccccc4)c3c2)CC1` [Compound 46], the IC50 (in experiment [1] (setting [2]); in the experiment on HIV-1YU-2 (setting [3])) was over 50 µM in each case.

`Cc1nn(-c2ccccc2)c(C)c1C(=O)C(=O)N1CCN(C(=O)c2ccccc2)CC1` [Compound 36]: the IC50 (in experiment [1] (setting [4]); with HIV-1YU-2 (setting [5])) was over 50 µM throughout.

Take `O=C(CCC(=O)N1CCN(C(=O)c2ccccc2)CC1)c1ccc(Cl)s1` [Compound 2]: the IC50 (in experiment [1] (setting [2]); in the experiment on HIV-1YU-2 (setting [3])) was over 300 µM each time.

For the compound `Cc1nn(-c2ccccc2)c(C)c1C(=O)C(=O)N1CCN(C(=O)c2ccccc2)CC1` [Compound 20], the IC50 (in experiment [1] (setting [4]); in the experiment with HIV-1YU-2 (setting [5])) was over 300 µM throughout.

In the case of `Cc1cc(C)nc(SCC(=O)N2CCN(C(=O)c3ccccc3)CC2)n1` [Compound 34], the IC50 is over 50 µM in experiment [1] (setting [2]) and 19.4 µM in the experiment on HIV-1YU-2 (setting [3]).

For the compound `O=C(COc1cccc(Br)c1)N1CCN(C(=O)c2ccccc2)CC1` [Compound 6], the IC50 (in experiment [1] (setting [2]); in the experiment with HIV-1YU-2 (setting [3])) was over 300 µM throughout.

On to `O=C(Cc1cccc2ccccc12)N1CCN(C(=O)c2ccco2)CC1` [Compound 32], for which the results for the IC50 (in experiment [1] (setting [2]); in the experiment on HIV-1YU-2 (setting [3])) were over 50 µM and 22.8 µM, respectively.

For `O=C(CSc1nnnn1C1CCCC1)N1CCN(C(=O)c2cccs2)CC1` [Compound 30], the IC50 (in experiment [1] (setting [2]); with HIV-1YU-2 (setting [3])) was over 50 µM each time.

As to `COc1ccc(OC)c(/C=C/C(=O)N2CCN(C(=O)C3CC3)CC2)c1` [Compound 45], the IC50 (in experiment [1] (setting [2]); in the experiment on HIV-1YU-2 (setting [3])) was over 50 µM in each case.

On to `O=C(c1cc(-c2ccc(Cl)cc2)on1)N1CCN(S(=O)(=O)c2ccccc2F)CC1` [Compound 14], for which the IC50 (in experiment [1] (setting [2]); in the experiment on HIV-1YU-2 (setting [3])) was over 300 µM each time.

With `O=C(c1ccccn1)N1CCN(S(=O)(=O)c2ccc3c(c2)OCCO3)CC1` [Compound 3], the IC50 (in experiment [1] (setting [2]); in the experiment with HIV-1YU-2 (setting [3])) was over 300 µM throughout.

For `O=C(c1ccccc1)N1CCN(C(=O)c2cc(-c3ccncc3)nc3ccccc23)CC1` [Compound 27], the IC50 (in experiment [1] (setting [2]); with HIV-1YU-2 (setting [3])) was over 50 µM in each case.

`O=C(c1ccccc1)N1CCN(C(=O)c2ccc3c4c(cccc24)CC3)CC1` [Compound 11]: the results for the IC50 (in experiment [1] (setting [2]); with HIV-1YU-2 (setting [5])) were over 300 µM and 15.7 µM, respectively.

Regarding `Cc1c(C)c(C)c(S(=O)(=O)N2CCN(C(=O)c3cccnc3O)CC2)c(C)c1C` [Compound 21], the IC50 (in experiment [1] (setting [2]); with HIV-1YU-2 (setting [3])) was over 300 µM in each case.

On to `COc1ccc(C(=O)N2CCN(C(=O)COc3cccc4ccccc34)CC2)cc1` [Compound 50], for which the IC50 (in experiment [1] (setting [2]); in the experiment on HIV-1YU-2 (setting [3])) was over 50 µM throughout.

Consider `COc1ccc(Br)cc1C=CC(=O)N1CCC(C(=O)c2ccccc2)CC1` [Compound 15], for which the values for the concentration for half-maximal inhibition (IC50) (in experiment [1] (setting [2]); in the experiment on HIV-1YU-2 (setting [3])) were 210 µM and 156 µM, respectively.

Turning to `Cc1nc2ccc(Cl)cc2cc1C(=O)N1CCN(S(=O)(=O)c2ccccc2)CC1` [Compound 17], the IC50 in experiment [1] (setting [2]) is 238 µM; with HIV-1YU-2 (setting [3]), 193 µM.

As for `COc1ccc(Cl)cc1C(=O)Cn1c(=O)oc2cc(S(=O)(=O)N3CCOCC3)ccc21` [Compound 43], the IC50 (in experiment [1] (setting [2]); with HIV-1YU-2 (setting [3])) was over 50 µM throughout.

For the compound `Cc1cnc2c(S(=O)(=O)N3CCN(C(=O)c4ccc(C)s4)CC3)cccc2c1` [Compound 35], the IC50 (in experiment [1] (setting [2]); with HIV-1YU-2 (setting [3])) was over 50 µM in each case.

Take `COc1cccc(C(=O)N2CCN(C(=O)COc3cccc4ccccc34)CC2)c1` [Compound 47]: the IC50 (in experiment [1] (setting [2]); with HIV-1YU-2 (setting [3])) was over 50 µM each time.

Consider `O=C(CSC1=Nc2ccccc2CS1)N1CCN(C(=O)c2cccs2)CC1` [Compound 41], for which the IC50 (in experiment [1] (setting [2]); in the experiment on HIV-1YU-2 (setting [3])) was over 50 µM throughout.

On to `CCc1cc(C(=O)N2CCN(C(=O)c3ccccc3)CC2)sc1C` [Compound 5], for which the IC50 (in experiment [1] (setting [2]); with HIV-1YU-2 (setting [3])) was over 300 µM each time.

In the case of `O=C1CSc2ccc(C(=O)N3CCN(C(=O)c4cccs4)CC3)cc2N1` [Compound 7], the IC50 (in experiment [1] (setting [2]); in the experiment with HIV-1YU-2 (setting [3])) was over 300 µM in each case.

On to `O=C(c1ccco1)N1CCN(C(O)COc2ccc(Cl)cc2[N+](=O)[O-])CC1` (centres unmarked) [Compound 39], for which the IC50 (in experiment [1] (setting [2]); with HIV-1YU-2 (setting [3])) was over 50 µM each time.

As to `O=C(c1ccccc1)N1CCN(S(=O)(=O)c2ccc(Cl)c(C(F)(F)F)c2)CC1` [Compound 4], the IC50 (in experiment [1] (setting [2]); in the experiment on HIV-1YU-2 (setting [3])) was over 300 µM each time.
